Source: patent US20020137929A1, “1 - (3-heterocyclylphenyl) isothiourea, -isourea, -guanidine and -amidine herbicidal agents” (Intellectual Property Department, BASF Aktiengesellschaft, priority 1998, published 2002)

Experiments:
CYPIR (Rice Flatsedge) = assay: Postemergence weed control under flooded paddy conditions; type: in vivo, Cyperus iria; conditions: postemergence weeds, 3-4 weeks after treatment
In short: (§1)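 Flood-water application, about 0.0313–0.500 kg/ha a.i. in aqueous/acetone 50/50 v/v; water depth 1.5–3 cm throughout. Weeds 3–5 cm, rice 1.5–2.5 leaf. Greenhouse; 0–9 visual rating vs control at 3–4 wk.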

[1] = test system: IPOHE (Morningglory, Ivyleaf); assay: Preemergence herbicidal evaluation; type: in vivo, Ipomoea hederacea; conditions: rated 4-5 weeks after treatment
In short: (§2)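 Steps: mix seeds into potting soil; plant atop ~1 inch soil; spray compound in aqueous acetone (~0.0156-0.500 kg/ha equivalent); maintain in greenhouse with watering; rate visually 0-9 versus control at 4-5 weeks.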

CYPSE (Flatsedge) = assay: Postemergence weed control under flooded paddy conditions; type: in vivo, Cyperus serotinus; conditions: postemergence weeds, 3-4 weeks after treatment
In short: as §1

[2] = test system: GLXMAW (Soybean, Williams); assay: Preemergence herbicidal evaluation; type: in vivo, Glycine max, (L.) Merr. cv Williams; conditions: rated 4-5 weeks after treatment
In short: as §2

[3] = test system: CHEAL (Lambsquarters, Common); assay: Preemergence herbicidal evaluation; type: in vivo, Chenopodium album; conditions: rated 4-5 weeks after treatment
In short: as §2

ABUTH (Velvetleaf) [4] = assay: Preemergence herbicidal evaluation; type: in vivo, Abutilon theophrasti; conditions: rated 4-5 weeks after treatment
In short: as §2

[5] = test system: TRZAWR (Wheat, Winter, cv Riband); assay: Preemergence herbicidal evaluation; type: in vivo, Triticum aestivum; conditions: rated 4-5 weeks after treatment
In short: as §2

CASOB (Sicklepod) = assay: Preemergence herbicidal evaluation; type: in vivo, Cassia obtusifolia; conditions: rated 4-5 weeks after treatment
In short: as §2

ECHCG (Barnyardgrass) [6] = assay: Preemergence herbicidal evaluation; type: in vivo, Echinochloa crus-galli; conditions: rated 4-5 weeks after treatment
In short: as §2

[7] = test system: IPOHE (Morningglory, Ivyleaf); assay: Postemergence herbicidal evaluation; type: in vivo, Ipomoea hederacea
In short: (§3)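 Visual 0-9 injury score (stand, vigor, malformation, size, chlorosis, appearance vs untreated) taken four to five weeks post-spray, averaged across repeat tests. Test plants about two weeks old; foliar spray of acetone/water (1:1) with 0.5% surfactant delivering ~0.0156-0.500 kg active/ha.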

ZEAMX (Corn, Field) [8] = assay: Preemergence herbicidal evaluation; type: in vivo, Zea mays; conditions: rated 4-5 weeks after treatment
In short: as §2

ZEAMX (Corn, Field) [9] = assay: Postemergence herbicidal evaluation; type: in vivo, Zea mays
In short: as §3

SETVI (Foxtail, Green) = assay: Postemergence herbicidal evaluation; type: in vivo, Setaria viridis
In short: as §3

[10] = test system: CHEAL (Lambsquarters, Common); assay: Postemergence herbicidal evaluation; type: in vivo, Chenopodium album
In short: as §3

ECHCG (Barnyardgrass) [11] = assay: Postemergence herbicidal evaluation; type: in vivo, Echinochloa crus-galli
In short: as §3

ABUTH (Velvetleaf) [12] = assay: Postemergence herbicidal evaluation; type: in vivo, Abutilon theophrasti
In short: as §3

ORYSAT (Rice, Tebonnet) = assay: Postemergence herbicidal evaluation; type: in vivo, Oryza sativa, (L.) Tebonnet
In short: as §3

## C[C@@H](C(=O)O)N1C(=O)CS/C1=N/c1cc(-n2c(=O)cc(C(F)(F)F)n(C)c2=O)c(F)cc1Cl [Compound 51, 2-{{2-Chloro-5-[3,6-dihydro-3-methyl-2,6-dioxo-4-(trifluoromethyl)-1(2H)-pyrimidinyl]-4-fluoro-phenyl}imino}-α-methyl-4-oxo-3-thiazolidineacetic acid, L-]
CYPIR (Rice Flatsedge); rate 0.0625 kg/ha
  Herbicidal rating CYPIR: 2.0
CYPIR (Rice Flatsedge); rate 0.1250 kg/ha
  Herbicidal rating CYPIR: 3.0
CYPIR (Rice Flatsedge); rate 0.2500 kg/ha
  Herbicidal rating CYPIR: 6.0
[1]; rate 0.0156 kg/ha
  Preemergence herbicidal rating IPOHE: 2.0
[1]; rate 0.0313 kg/ha
  Preemergence herbicidal rating IPOHE: 9.0
[1]; rate 0.0625 kg/ha
  Preemergence herbicidal rating IPOHE: 9.0
[1]; rate 0.1250 kg/ha
  Preemergence herbicidal rating IPOHE: 9.0
[1]; rate 0.2500 kg/ha
  Preemergence herbicidal rating IPOHE: 9.0
CYPSE (Flatsedge); rate 0.0625 kg/ha
  Herbicidal rating CYPSE: 0.0
CYPSE (Flatsedge); rate 0.1250 kg/ha
  Herbicidal rating CYPSE: 0.0
CYPSE (Flatsedge); rate 0.2500 kg/ha
  Herbicidal rating CYPSE: 0.0
[2]; rate 0.0156 kg/ha
  Preemergence herbicidal rating GLXMAW: 0.0
[2]; rate 0.0313 kg/ha
  Preemergence herbicidal rating GLXMAW: 0.0
[2]; rate 0.0625 kg/ha
  Preemergence herbicidal rating GLXMAW: 1.0
[2]; rate 0.1250 kg/ha
  Preemergence herbicidal rating GLXMAW: 1.0
[2]; rate 0.2500 kg/ha
  Preemergence herbicidal rating GLXMAW: 7.0
[3]; rate 0.0156 kg/ha
  Preemergence herbicidal rating CHEAL: 3.0
[3]; rate 0.0313 kg/ha
  Preemergence herbicidal rating CHEAL: 9.0
[3]; rate 0.0625 kg/ha
  Preemergence herbicidal rating CHEAL: 9.0
[3]; rate 0.1250 kg/ha
  Preemergence herbicidal rating CHEAL: 9.0
[3]; rate 0.2500 kg/ha
  Preemergence herbicidal rating CHEAL: 9.0
ABUTH (Velvetleaf) [4]; rate 0.0156 kg/ha
  Preemergence herbicidal rating ABUTH: 9.0
ABUTH (Velvetleaf) [4]; rate 0.0313 kg/ha
  Preemergence herbicidal rating ABUTH: 9.0
ABUTH (Velvetleaf) [4]; rate 0.0625 kg/ha
  Preemergence herbicidal rating ABUTH: 9.0
ABUTH (Velvetleaf) [4]; rate 0.1250 kg/ha
  Preemergence herbicidal rating ABUTH: 7.0
ABUTH (Velvetleaf) [4]; rate 0.2500 kg/ha
  Preemergence herbicidal rating ABUTH: 9.0
[5]; rate 0.0156 kg/ha
  Preemergence herbicidal rating TRZAWR: 0.0
[5]; rate 0.0313 kg/ha
  Preemergence herbicidal rating TRZAWR: 0.0
[5]; rate 0.0625 kg/ha
  Preemergence herbicidal rating TRZAWR: 0.0
[5]; rate 0.1250 kg/ha
  Preemergence herbicidal rating TRZAWR: 2.0
[5]; rate 0.2500 kg/ha
  Preemergence herbicidal rating TRZAWR: 6.0
CASOB (Sicklepod); rate 0.0156 kg/ha
  Preemergence herbicidal rating CASOB: 0.0
CASOB (Sicklepod); rate 0.0313 kg/ha
  Preemergence herbicidal rating CASOB: 0.0
CASOB (Sicklepod); rate 0.0625 kg/ha
  Preemergence herbicidal rating CASOB: 0.0
CASOB (Sicklepod); rate 0.1250 kg/ha
  Preemergence herbicidal rating CASOB: 1.0
CASOB (Sicklepod); rate 0.2500 kg/ha
  Preemergence herbicidal rating CASOB: 1.0
ECHCG (Barnyardgrass) [6]; rate 0.0156 kg/ha
  Preemergence herbicidal rating ECHCG: 0.0
ECHCG (Barnyardgrass) [6]; rate 0.0313 kg/ha
  Preemergence herbicidal rating ECHCG: 0.0
ECHCG (Barnyardgrass) [6]; rate 0.0625 kg/ha
  Preemergence herbicidal rating ECHCG: 1.0
ECHCG (Barnyardgrass) [6]; rate 0.1250 kg/ha
  Preemergence herbicidal rating ECHCG: 1.0
ECHCG (Barnyardgrass) [6]; rate 0.2500 kg/ha
  Preemergence herbicidal rating ECHCG: 1.0
[7]; Rate 0.0158 kg/ha
  Postemergence herbicidal rating IPOHE: 9.0
[7]; Rate 0.0315 kg/ha
  Postemergence herbicidal rating IPOHE: 9.0
[7]; Rate 0.0630 kg/ha
  Postemergence herbicidal rating IPOHE: 9.0
ZEAMX (Corn, Field) [8]; rate 0.0156 kg/ha
  Preemergence herbicidal rating ZEAMX: 1.0
ZEAMX (Corn, Field) [8]; rate 0.0313 kg/ha
  Preemergence herbicidal rating ZEAMX: 1.0
ZEAMX (Corn, Field) [8]; rate 0.0625 kg/ha
  Preemergence herbicidal rating ZEAMX: 1.0
ZEAMX (Corn, Field) [8]; rate 0.1250 kg/ha
  Preemergence herbicidal rating ZEAMX: 2.0
ZEAMX (Corn, Field) [8]; rate 0.2500 kg/ha
  Preemergence herbicidal rating ZEAMX: 6.0
ZEAMX (Corn, Field) [9]; Rate 0.0158 kg/ha
  Postemergence herbicidal rating ZEAMX: 7.0
ZEAMX (Corn, Field) [9]; Rate 0.0315 kg/ha
  Postemergence herbicidal rating ZEAMX: 7.5
ZEAMX (Corn, Field) [9]; Rate 0.0630 kg/ha
  Postemergence herbicidal rating ZEAMX: 7.5
SETVI (Foxtail, Green); Rate 0.0158 kg/ha
  Postemergence herbicidal rating SETVI: 7.0
SETVI (Foxtail, Green); Rate 0.0315 kg/ha
  Postemergence herbicidal rating SETVI: 9.0
SETVI (Foxtail, Green); Rate 0.0630 kg/ha
  Postemergence herbicidal rating SETVI: 9.0
[10]; Rate 0.0158 kg/ha
  Postemergence herbicidal rating CHEAL: 9.0
[10]; Rate 0.0315 kg/ha
  Postemergence herbicidal rating CHEAL: 9.0
[10]; Rate 0.0630 kg/ha
  Postemergence herbicidal rating CHEAL: 9.0
ECHCG (Barnyardgrass) [11]; Rate 0.0158 kg/ha
  Postemergence herbicidal rating ECHCG: 4.0
ECHCG (Barnyardgrass) [11]; Rate 0.0315 kg/ha
  Postemergence herbicidal rating ECHCG: 5.0
ECHCG (Barnyardgrass) [11]; Rate 0.0630 kg/ha
  Postemergence herbicidal rating ECHCG: 9.0
ABUTH (Velvetleaf) [12]; Rate 0.0158 kg/ha
  Postemergence herbicidal rating ABUTH: 9.0
ABUTH (Velvetleaf) [12]; Rate 0.0315 kg/ha
  Postemergence herbicidal rating ABUTH: 9.0
ABUTH (Velvetleaf) [12]; Rate 0.0630 kg/ha
  Postemergence herbicidal rating ABUTH: 9.0
ORYSAT (Rice, Tebonnet); Rate 0.0158 kg/ha
  Postemergence herbicidal rating ORYSAT: 2.0
ORYSAT (Rice, Tebonnet); Rate 0.0315 kg/ha
  Postemergence herbicidal rating ORYSAT: 3.5
ORYSAT (Rice, Tebonnet); Rate 0.0630 kg/ha
  Postemergence herbicidal rating ORYSAT: 4.0
